Assay results from ChEMBL document CHEMBL1151678, “Halicylindramides D and E, antifungal peptides from the marine sponge Halichondria cylindrata” (J Nat Prod, 1996).
Calls of active or inactive are those of the source. No cut-off for these calls is given here.

What was measured:
Umbelopsis ramanniana [1] = assay: Antifungal activity against Mortierella ramanniana at 5 ug/disk; type: functional, organism-based
P388 [2] = assay: Cytotoxicity against mouse P388 cells; type: functional, cell-based
Umbelopsis ramanniana [3] = assay: Antifungal activity against Mortierella ramanniana at 160 ug/disk; type: functional, organism-based
P388 [4] = assay: Cytotoxicity against mouse P388 cells at 5 ug/mL; type: functional, cell-based

Structure (SMILES) | Activity (Umbelopsis ramanniana [1]) | IC50 (P388 [2]) [µg/mL] | Activity (Umbelopsis ramanniana [3]) | Activity (P388 [4])
CC(C)[C@H](NC(=O)[C@H](NC(=O)[C@@H]1CCCN1C(=O)[C@H](Cc1ccc(Br)cc1)NC(=O)[C@@H](C)NC=O)C(C)C)C(=O)N[C@H](Cc1c[nH]c2ccccc12)C(=O)N[C@@H](CCCNC(=N)N)C(=O)N[C@H](CS(=O)(=O)[O-])C(=O)N[C@@H]1C(=O)N(C)[C@@H](CCC(N)=O)C(=O)N[C@H](Cc2ccccc2)C(=O)NCC(=O)N[C@H](CC(N)=O)C(=O)O[C@@H]1C.[Na+] [HALICYLINDRAMIDE D] | Active | 2.1 | – | –
CC(C)[C@@H](NC(=O)[C@@H]1CCCN1C(=O)[C@H](Cc1ccc(Br)cc1)NC(=O)[C@@H](C)NC=O)C(=O)N[C@H](C(=O)N[C@H](Cc1c[nH]c2ccccc12)C(=O)N[C@@H](CCCNC(=N)N)C(=O)N[C@H](CS(=O)(=O)O)C(=O)N[C@H](C(=O)N(C)[C@@H](CCC(N)=O)C(=O)N[C@H](Cc1ccccc1)C(N)=O)[C@@H](C)O)C(C)(C)C | – | – | Active | inactive
